# Measurements: the SangsterLogP compilation
# Experiment: method code SF-AS, from DOI: 10.1002/zfch.19780180919
row,logP,SMILES
1,0.22,Cc1ccccc1C(=O)NN
2,0.26,NNC(=O)c1ccccc1Br
3,-0.08,NNC(=O)c1cccc(O)c1
4,0.4,COc1cccc(C(=O)NN)c1
5,0.14,NNC(=O)c1ccccc1Cl
6,0.6,NNC(=O)c1ccccc1O
7,0.23,NNC(=O)c1cccc([N+](=O)[O-])c1

# The remaining lines, values behind:
row,SMILES,logP
1,NNC(=O)c1ccc(O)cc1,-0.33
2,NNC(=O)c1ccc(Br)cc1,1.28
3,NNC(=O)c1cccc(Br)c1,1.26
4,NNC(=O)c1cccc(N)c1,-0.86
5,NNC(=O)c1ccccc1N,-0.18
6,NNC(=O)c1ccc(N)cc1,-0.75
7,Cc1ccc(C(=O)NN)cc1,0.73
8,NNC(=O)c1ccc([N+](=O)[O-])cc1,0.35
9,NNC(=O)c1cccc(Cl)c1,1.18
10,NNC(=O)c1ccccc1[N+](=O)[O-],-0.54
11,Cc1cccc(C(=O)NN)c1,0.74
12,NNC(=O)c1cccc(I)c1,1.53
13,COc1ccccc1C(=O)NN,0.25
14,COc1ccc(C(=O)NN)cc1,0.25
15,NNC(=O)c1ccc(Cl)cc1,1.12
16,NNC(=O)c1ccccc1I,0.47
17,NNC(=O)c1ccc(I)cc1,1.55
